# Test results as given in patent US11029303B2, “PAH antibodies and uses thereof” (The Administrators of the Tulane Educational Fund, priority 2015, dated 2021).
# Key:
# [1] = target: T1, human aryl hydrocarbon receptor (AhR) (Homo sapiens, UniProt P35869); test: Yeast bioassay of human AhR activation (YCM3 yeast, LacZ reporter); type: cell-based; conditions: for EC50: concentration inducing 50% of the activity of 100 μM phenanthrene, 18 hr, read-out: rEC50
# T1 construct: host or cells: Saccharomyces cerevisiae strain YCM3 (derived from W303a), AhR and ARNT integrated on chromosome III under a galactose promoter
# Excerpt: Cell culture. An engineered Saccharomyces cerevisiae yeast strain, YCM3, was used for the present study. YCM3 was derived from the W303a yeast strain and is made available to investigators through the American Type Culture Collection (ATCC, strain MYA-3637). Human Ah receptor and ARNT genes were inserted onto chromosome III under the control of galactose promoter. YCM3 was transformed with a LacZ reporter plasmid that is expressed upon interaction with ligand activated AHRC (FIG. 24). This modification process was described in a previous study (Fox et al., 2008). The yeast cells were maintained in a glucose-containing medium (0.67% yeast nitrogen base without amino acids, 2% glucose, supplemented with 0.01% uracil, adenine, leucine, and histidine), and the bioassay was performed in a galactose-containing medium (2% galactose substituted for glucose in the medium described herein). Medium components were purchased from Sigma Aldrich Chemical Company.
# (§1) Yeast bioassay. The YCM3 yeast cells were diluted into the galactose medium to a final A600 nm of 0.04, plated into 96-well plates at 200 μl/well, and treated with various concentrations of PAHs for 18 hr at 30° C. During this time, the human AhR and aryl hydrocarbon receptor nuclear translocator (ARNT) were expressed in the presence of galactose and activated by PAH ligands in the cell to form the aryl hydrocarbon receptor complex (AHRC). After 18 hrs of incubation, yeast cells were suspended by pipetting, a 25 μl aliquot from each well was transferred into another 96-well assay plate and mixed with 225 μl substrate solution (60 mM Na2HPO4, 40 mM NaH2PO4, 1 mM MgCl2, 10 mM KCl, 0.2% sarkosyl, 1 mM dithiothreitol, and 0.4 mg/ml ortho-nitrophenyl-β-galactoside; pH, 7.0). The assay plate was incubated for ˜5 min at 37° C. and then 100 μl of a 1M Na2CO3 solution was added to stop the reaction and enhance the yellow color. Cell densities were determined from the first 96-well plate by measuring A600 nm and the color intensities of LacZ reactions determined by A405 nm from the corresponding wells of the second plate.
# A450 sample is the measurement of a ligand-treated well at 405 nm absorbance and A450 empty is the measurement of a well that contains only medium and no cells. A600 sample is the measurement of yeast cell density of a ligand-treated well at 600 nm absorbance and A600 empty is the measurement of a well that contains only medium and no cells. Cell volume is the amount of cell suspension added per well in ml (for example 0.025 ml) and reaction time is the time period of the colorimetric reaction (for example 5 min). The lacZ units were calculated as a percentage relative to the positive control (β-naphthaflavone signal set as 100%), and the dose response curves were fitted using SlideWrite program (version 7.01, Advanced Graphics Software, Inc.) using the 2 parameter curve: y=m+a0*x/(a1+x) (2) where m=LacZDMSO value from the assay plate, a0=maximum effect and a1=half maximum effective concentrations (EC50).
# Relative EC50 and EC25 (rEC50 and rEC25) values were further introduced to compare potencies of various methylated phenanthrenes. rEC50 and rEC25 were defined as the concentrations of the total PAH at which the AhR was activated to 50% or 25% of the activation observed in the 100 μM phenanthrene control, respectively. The 100 μM concentration was chosen because it was the maximum that can be achieved in the assay. The rEC50 and rEC25 and the errors associated with these values were calculated from the fitted curves. Specifically, the LacZ value corresponding to 50% or 25% of this value was calculated according to the following equations: y(EC50)=[lacZ(100 uM Phen)+LacZ(1% DMSO)]/2 (3) y(EC25)=[lacZ(100 uM Phen)+3*LacZ(1% DMSO)]/4 (4)
# These calculated y values and the a0 and a1 values from the curve fits were then used to solve for x in equation (2) above. These x values represent the mean of rEC50 or rEC25 from the fitted curve. […]
# YCM3 yeast cells = test: Toxicity to yeast cells in the yeast bioassay (inhibition of cell accumulation); type: cell-based, Saccharomyces cerevisiae; conditions: up to 100 μM
# Method: as §1, with “The assay plate was incubated for ˜5 min at 37° C. and then 100 μl of a 1M Na2CO3 solution was added to stop the reaction and enhance the yellow color.” left out
# During the induction process, YCM3 yeast cells were incubated with varying concentrations of phenanthrene and its methylated derivatives and their signaling activities were measured via a colorimetric substrate. […] Differences in cell growth at the end of the 18 hr incubation period were normalized by measuring each culture's absorbance at 600 nm.
# [2] = crystal; cited from earlier work
# marine fish = conditions: larvae of marine fish; cited from earlier work
# T1 sequence (P35869 11-848): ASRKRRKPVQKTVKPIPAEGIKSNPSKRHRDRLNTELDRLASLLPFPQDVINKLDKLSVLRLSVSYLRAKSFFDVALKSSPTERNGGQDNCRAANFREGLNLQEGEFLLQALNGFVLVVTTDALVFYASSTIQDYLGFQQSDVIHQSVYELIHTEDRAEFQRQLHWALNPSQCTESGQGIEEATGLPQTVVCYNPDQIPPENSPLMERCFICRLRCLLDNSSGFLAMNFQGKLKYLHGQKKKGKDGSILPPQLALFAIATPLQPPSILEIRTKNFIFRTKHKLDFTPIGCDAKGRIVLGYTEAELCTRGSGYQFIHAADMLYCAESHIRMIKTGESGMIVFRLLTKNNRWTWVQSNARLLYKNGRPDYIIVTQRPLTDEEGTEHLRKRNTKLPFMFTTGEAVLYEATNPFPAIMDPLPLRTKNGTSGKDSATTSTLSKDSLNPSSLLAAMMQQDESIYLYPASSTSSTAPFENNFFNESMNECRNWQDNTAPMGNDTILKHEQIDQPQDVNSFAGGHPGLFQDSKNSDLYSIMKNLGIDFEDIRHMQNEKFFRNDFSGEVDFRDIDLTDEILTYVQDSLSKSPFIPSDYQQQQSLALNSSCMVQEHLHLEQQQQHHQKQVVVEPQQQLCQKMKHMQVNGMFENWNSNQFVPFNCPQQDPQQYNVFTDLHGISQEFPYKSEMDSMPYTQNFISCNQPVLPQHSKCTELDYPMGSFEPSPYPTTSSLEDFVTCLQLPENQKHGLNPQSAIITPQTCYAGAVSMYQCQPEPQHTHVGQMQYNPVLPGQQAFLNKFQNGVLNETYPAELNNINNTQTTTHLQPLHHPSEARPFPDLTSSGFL
# T1 sequence (P27540 whole entry partner): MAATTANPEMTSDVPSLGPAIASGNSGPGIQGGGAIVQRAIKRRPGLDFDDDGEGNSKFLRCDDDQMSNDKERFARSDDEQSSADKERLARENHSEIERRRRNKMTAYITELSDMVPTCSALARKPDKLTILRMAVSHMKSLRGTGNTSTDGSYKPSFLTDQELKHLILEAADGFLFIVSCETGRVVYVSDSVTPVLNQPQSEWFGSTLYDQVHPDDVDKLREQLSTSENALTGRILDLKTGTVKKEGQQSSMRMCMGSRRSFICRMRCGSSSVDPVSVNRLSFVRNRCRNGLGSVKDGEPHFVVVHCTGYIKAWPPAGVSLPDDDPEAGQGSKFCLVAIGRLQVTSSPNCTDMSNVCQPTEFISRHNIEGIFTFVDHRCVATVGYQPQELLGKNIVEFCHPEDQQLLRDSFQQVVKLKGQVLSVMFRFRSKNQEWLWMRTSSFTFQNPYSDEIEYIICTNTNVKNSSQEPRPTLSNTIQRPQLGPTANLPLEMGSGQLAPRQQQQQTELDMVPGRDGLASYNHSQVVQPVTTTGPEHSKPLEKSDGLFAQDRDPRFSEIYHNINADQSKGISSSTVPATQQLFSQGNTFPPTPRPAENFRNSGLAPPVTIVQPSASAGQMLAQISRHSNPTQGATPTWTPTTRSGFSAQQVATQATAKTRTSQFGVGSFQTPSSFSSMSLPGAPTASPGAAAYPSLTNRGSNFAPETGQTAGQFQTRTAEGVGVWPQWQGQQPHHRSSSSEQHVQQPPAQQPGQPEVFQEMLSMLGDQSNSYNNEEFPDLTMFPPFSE
structure (smiles),measurement,setting,value
"Cc1ccc2ccc3ccc(C)cc3c2c1 [3,6-DMP, 3,6-dimethylphenanthrene]",rEC50 comparison (ANOVA post-test),[1],significantly more potent that 4-MP
same,rEC25 comparison (ANOVA post-test),[1]; 25% of the activity of 100 μM phenanthrene,"significantly more potent than the 3-, 4- and 9-MPs"
same,response achieved in the assay,[1]; dose-response curve up to 100 μM,up to 50%
"Cc1cccc2c1ccc1ccccc12 [Clone 1-MP, 1-methylphenanthrene]",concentration at which maximal response was reached,[1],~40 µM
same,EC50,[1],4 µM
same,Emax at 18 h,"[1]; human, 1 μM BNF set as 100%, read-out: maximal response",109%
"Cc1ccc2c(ccc3ccccc32)c1 [Clone 2-MP, 2-methylphenanthrene]",EC50,[1],4.6 µM
"Cc1ccc2ccc3ccccc3c2c1 [Clone 3-MP, 3-methylphenanthrene]",EC50,[1],5.8 µM
"Cc1cc2ccccc2c2ccccc12 [Clone 9-MP, 9-methylphenanthrene]",toxicity to the yeast cells,YCM3 yeast cells,less toxic to the yeast cells
c1ccc2c(c1)ccc1ccccc12 [phenanthrene],toxicity to the yeast cells,YCM3 yeast cells,less toxic to the yeast cells
same,solubility lower than biphenyl,[2],1000 fold
"Cc1cccc2c1ccc1cc(C(C)C)ccc12 [retene, 7-isopropyl-1-methylphenanthrene]",toxicity in vivo,marine fish,greater toxicity than unsubstituted phenanthrene
